Series [1] concerns lung adenocarcinoma (A549). Put plainly: MTT viability assay, A549. Type of series: cell-based, human. The procedure:
(§1) When the confluence was greater than 70%, adherent cell lines were detached from the bottle surface with a TrypLE solution and then used in assays or reduced. The cells were collected into centrifuge tubes and centrifuged at 1000× g for 5 min at room temperature. The supernatant was removed to dry. The cell pellets were then resuspended in an appropriate medium. The cells were counted using a Bürker chamber and resuspended in 96-well plates to a cell density of 10,000 cells per well for MTT assay. For the rhodamine accumulation test and the detection of apoptosis assay, cells were seeded at a density of 30,000 per well. In the migration assay, cells were seeded at a density of 20,000 per well, and monolayer formation was awaited.
(§2) In this study, normal human dermal fibroblasts (NHDFs), breast cancer cells (MCF7), human lung adenocarcinoma cells (A549), murine fibroblasts (L929), colon adenocarcinoma cells (HT29), and colorectal adenocarcinoma cells (LoVo) were used. All cell lines were cultured in the recommended media. […] The human lung adenocarcinoma cell line A549 and breast cancer cell line MCF-7 were obtained from the ECACC. These cell lines were cultured in Eagle’s minimal essential medium (MEM). Murine fibroblast L929 (Sigma-Aldrich, Merck Group, Headquarters, Darmstadt, Germany; the European Collection of Authenticated Cell Cultures—ECACC) cells were grown in DMEM. […] All media were supplemented with 10% FBS and 100 µg/mL of penicillin–streptomycin.
(§3) All compounds were dissolved in DMSO and the reference drugs were dissolved in physiological saline to concentrations of 10 mM. Concentrations from 1 to 500 μM in the media recommended for the cell lines were prepared for the tests.
(§4) All of the synthesized derivatives were evaluated via the MTT assay. All cell lines were seeded into 96-well plates at a density of 10,000 cells per well. To allow the cells to adhere to the surface of the plates, they were incubated overnight before the application of the test compounds. […] The tests were performed for concentrations of 1, 5, 10, 25, 50, 100, 250, and 500 μM. The solutions of the test compounds were removed from the culture on the 96-well plates. […] The supernatant was then removed. The violet crystal was dissolved in isopropanol for 30 min by shaking. Absorbance was measured at 570 nm.
(§5) Biological assays were performed in three independent replicates, and each replicate used four samples. Three repetitions were made for the ELISA determinations. For the assessment of cytotoxicity, mathematical models were developed using the GraphPad PRISM software, based on which CC50 was determined. The values of CC50 were estimated based on nonlinear regression using the dependence of the biological effect on the molar concentrations of the compounds (four-parameter logistic model with Hill slope).

Series [2] in a line: MTT viability assay, L929. Type of series: cell-based, murine. Conditions: mouse, L929 fibroblasts, tested 1–500 µM. Here is the method: as §1, §2, §3, §4, §5
Series [3] relates to breast adenocarcinoma (MCF7). Kind of series: MTT viability assay, MCF7. Type of series: cell-based, human. Conditions: for SI (selectivity index): CC50 NHDF / CC50 MCF7; for CC50: Homo sapiens. Here is the method:
as §1, §2, §3, §4, §5

Series [4] concerns normal human dermal fibroblasts (NHDF). Put plainly: MTT viability assay, NHDF. Type of series: cell-based. The following applies: tested 1–500 µM. The procedure: as §1, §2, §3, §4, §5
Series [5] relates to primary colon adenocarcinoma (HT29). Kind of series: MTT viability assay, HT29. The following applies: for SI (selectivity index): CC50 NHDF / CC50 HT29; for CC50: Homo sapiens, HT-29, HT29, MTT; for CC50 / CC50 ± SD: tested 1–500 µM; for CC50 ± SD: HT29, MTT. The format is cell-based, human. Here is the method:
as §1, §2, §3, §4, §5

The subject of series [6] is HT29 cells. Further details: method as in PMID 27002410. Conditions: cited from earlier work.
Series [7] has as its system LoVo. Conditions: cited from earlier work.
For series [8], the system named is HT29. Conditions: cited from earlier work.
Series [9] concerns A549. Conditions: cited from earlier work.
In series [10] the test system is MCF7. Conditions: cited from earlier work.
Series [11] relates to HT29 primary colon adenocarcinoma cells. Put plainly: Detection of apoptosis (Annexin V FITC / propidium iodide). The format is cell-based, human. Further details: unit not given here. The following applies: 24 h. Here is the method:
as §1, with “All cell lines were grown in 5% CO2 at 95% humidity and 37 °C, with both morphology and confluence assessed twice per week. When” for “When”
HT29 primary colon adenocarcinoma cells were grown in 96-well plates for 24 h. The 5 selected derivatives were added at concentrations of 1, 2, 5, and 10 µM, and then incubated for 24 h. The mixture of Annexin V conjugated with fluorescein and propidium iodide in PBS with Mg^2+ and Ca^2+ ions (Thermo Fisher Scientific, Waltham, MA, USA) was then applied. The incubation lasted 20 min at 37 °C. Pictures were taken using a fluorescence microscope. Thirteen images were taken from each well using an EVOS FL fluorescence microscope, with three replications for each compound. The open ImageJ space was used to analyze the number of cells. The Thermo Fisher Dead Cell Apoptosis Kit with Annexin V FITC and Propidium Iodide (PI) detects phosphatidylserine extrusion in apoptotic cells using Annexin V conjugated with a green fluorescent FITC dye and dead cells stained by PI with red fluorescence.

The test system of series [12] is murine fibroblasts (L929). Put plainly: MTT viability assay, L929. The format is cell-based. The following applies: tested 1–500 µM. Here is the method:
as §1, §2, §3, §4, §5

In series [13] the test system is metastatic colon adenocarcinoma (LoVo). Kind of series: MTT viability assay, LoVo. Type of series: cell-based, human. The procedure:
as §1, §2, §3, §4, §5

The nature of series [14]: MTT viability assay, NHDF. The format is cell-based, human. The following applies: human, normal human dermal fibroblasts (NHDF), tested 1–500 µM. The procedure:
as §1, §2, §3, §4, §5

Entries after “also recorded” stand apart in the source; their conditions may differ. Read-outs that look alike come from different tables or passages of the source.

Take `CCNc1ncnc2oc(-c3c(C)noc3N)nc12` [Compound 3b, 2-(5-Amino-3-methylisoxazol-4-yl)-7-N-ethylaminooxazolo[5,4-d]pyrimidine]: the melting point was 253 to 254 °C (dec.). Also, in [1] (A549, MTT, tested 1–500 µM), the “CC50 ± SD” value is “no activity”. For the same molecule, half-maximal cytotoxicity in series [2] (CC50) was put at 235 ± 11.5 µM. In addition, the “SI (selectivity index)” value in series [3] is >>1. This molecule returned a CC50 in [3] (MCF7, MTT, tested 1–500 µM) of 193 ± 16.9 µM. The “CC50 ± SD” value in series [4] is recorded as “Non-toxic”. Further, in series [5], the “SI (selectivity index)” value was >>1 and the CC50 amounted to 194 ± 15.4 µM.
As for `COc1ccc(CCN(C)CCCC(C#N)(c2ccc(OC)c(OC)c2)C(C)C)cc1OC` (centres unmarked) [verapamil], the “intracellular fluorescence intensity of Rh-123, increase” value is on record as 1.77 fold in [6] (HT29, treatment 48 h) and 1.9 fold in [6] (HT29, treatment 72 h).
Regarding `CCN(CC)CCNC(=O)c1c(C)[nH]c(/C=C2\C(=O)Nc3ccc(F)cc32)c1C` [Sunitinib], the IC50 in [7] was 4.18 ± 0.27 µM; in series [8] (ref 78), 4.89 µM; in series [8] (ref 79), 2.25 µM; in [9] (ref 78, read-out: IC50 (converted)), 6.98 µM; in series [10], 7.3 µM.
As for `Cc1noc(N)c1-c1nc2c(NCCO)ncnc2o1` [Compound 3h, 2-(5-Amino-3-methylisoxazol-4-yl)-7-N-(2-hydroxyethyl)aminooxazolo[5,4-d]pyrimidine], the melting point is 213 to 214 °C (dec.). This molecule also registered a CC50 in [2] of 146 ± 11.1 µM. Also, the “CC50 ± SD” value in [3] (MCF7, MTT, tested 1–500 µM) was “no cytotoxic activity”. The “CC50 ± SD” value in series [4] is given as “Non-toxic”. Also, in [5], the “CC50 ± SD” value is on record as “lack cytotoxic activity”.
Consider `COc1cc2nccc(Oc3ccc(NC(=O)C4(C(=O)Nc5ccc(F)cc5)CC4)cc3)c2cc1OC` [Cabozantinib], for which the IC50 in series [8] (ref 67) is 11.5 ± 1.1 µM; in [9] (ref 67, read-out: IC50 (converted)) it was 9.52 ± 0.91 µM; in [9] (ref 68, read-out: IC50 (converted)), 15.2 µM; in series [10], 14.3 ± 0.87 µM.
Regarding `Cc1noc(N)c1-c1nc2c(NCCN3CCOCC3)ncnc2o1` [Compound 3j, 2-(5-Amino-3-methylisoxazol-4-yl)-7-N-[2-(morpholin-4-yl)ethyl]aminooxazolo[5,4-d]pyrimidine], the apoptosis mean in series [11] (1 μM) worked out at 5.45; in series [11] (2 μM), 8.18; in series [11] (5 μM), 8.28; in [11] (10 μM), 1.34. The late apoptosis mean in series [11] (1 μM) stood at 29.25; in series [11] (2 μM) it was 26.44; in series [11] (5 μM), 30.59; in series [11] (10 μM), 13.55. Also, the necrosis mean is given as 8.01 in series [11] (1 μM), 3.92 in series [11] (2 μM), 3.45 in series [11] (5 μM) and 32.35 in series [11] (10 μM). Moreover, the “percent live (viable) cells” value was 57.30 in series [11] (1 μM), 61.47 in [11] (2 μM), 57.69 in [11] (5 μM) and 52.76 in series [11] (10 μM). Further, the CC50 in series [2] worked out at 52.9 ± 9.51 µM; in series [3] (MCF7, MTT, tested 1–500 µM), 197 ± 13.1 µM; in [5] it was 99.9 ± 10.9 µM. For the same molecule, the “SI (selectivity index)” value in series [3] and in series [5] was >>1 throughout. In addition, the “CC50 ± SD” value in series [4] was “no toxicity at all; also recorded: Non-toxic”.
Regarding `CCCCNc1ncnc2oc(-c3c(C)noc3N)nc12` [Compound 3d, 2-(5-Amino-3-methylisoxazol-4-yl)-7-N-butylaminooxazolo[5,4-d]pyrimidine], the melting point was 239 to 240 °C (dec.). In addition, the “SI (selectivity index)” value in series [1] (CC50 NHDF / CC50 A549) was found to be 0.705. For the same molecule, the CC50 in series [1] (Homo sapiens, A549, MTT, tested 1–500 µM) turned out to be 179 ± 14.9 µM. For the same molecule, in series [12], the “CC50 ± SD” value was “no toxic activity; also recorded: Non-toxic”. The “SI (selectivity index)” value in series [3] came out at 0.944. This molecule displayed a CC50 in series [3] (MCF7, MTT, tested 1–500 µM) of 134 ± 14 µM. The “SI (selectivity index)” value in [13] (CC50 NHDF / CC50 LoVo) worked out at 0.558. The molecule further displayed a CC50 in [13] (Homo sapiens, LoVo, MTT, tested 1–500 µM) of 226 ± 8.28 µM. This molecule had a CC50 in series [14] of 126 ± 9.87 µM. Moreover, in series [5], the “SI (selectivity index)” value came to 0.820 and half-maximal cytotoxicity (CC50) was put at 154 ± 13.4 µM.
Turning to `Cc1noc(N)c1-c1nc2c(NCCCO)ncnc2o1` [Compound 3i, 2-(5-Amino-3-methylisoxazol-4-yl)-7-N-(3-hydroxypropyl)aminooxazolo[5,4-d]pyrimidine], the melting point is 225 to 226 °C (dec.). Besides, in series [2], the CC50 came out at 171 ± 22.8 µM. For the same molecule, the “SI (selectivity index)” value in series [3] is >>1. The molecule also gave a CC50 in series [3] (MCF7, MTT, tested 1–500 µM) of 251 ± 22.1 µM. In addition, the “CC50 ± SD” value in series [4] was “Non-toxic”. Also, the “CC50 ± SD” value in series [5] is “lack cytotoxic activity”.
Turning to `CNC(=O)c1cc(Oc2ccc(NC(=O)Nc3ccc(Cl)c(C(F)(F)F)c3)c(F)c2)ccn1` [Regorafenib], the figures for the IC50 in series [7] and in [8] (ref 66) were 2 µM and 2.75 ± 0.18 µM, respectively.
With `COc1cc2nccc(Oc3ccc(NC(=O)Nc4cc(C)on4)c(Cl)c3)c2cc1OC` [Tivozanib], the IC50 was 0.19 ± 0.04 µM in [9] (ref 64, read-out: IC50 (converted)) and 0.25 ± 0.03 µM in series [10].
As to `Cc1ccc(Nc2nccc(N(C)c3ccc4c(C)n(C)nc4c3)n2)cc1S(N)(=O)=O` [Pazopanib], the IC50 in series [8] (ref 77) is more than 5 µM; in [9] (ref 75, read-out: IC50 (converted)) it was 4 to 6 µM; in [10], 6.29 µM.
Turning to `COc1cc2c(Nc3ccc(Br)cc3F)ncnc2cc1OCC1CCN(C)CC1` [Vandetanib], the IC50 was 3.5 ± 0.9 µM in series [7]; 10 ± 0.4 µM in [8] (ref 74); 2.7 ± 0.5 µM in series [9] (ref 72, read-out: IC50 (converted)); 12.2 ± 0.28 µM in series [10].
`CNC(=O)c1cc(Oc2ccc(NC(=O)Nc3ccc(Cl)c(C(F)(F)F)c3)cc2)ccn1` [Sorafenib]: the IC50 was 31 µM in series [7]; 17.3 ± 3.8 µM in series [8] (ref 80); 5.62 ± 2.13 µM in series [9] (ref 80, read-out: IC50 (converted)).
